ChEMBL document CHEMBL1134419, “Solution-Phase parallel synthesis of 5-carboxamido 1-benzyl-3-(3-dimethylaminopropyloxy)-1H-pyrazoles as activators of soluble guanylate cyclase with improved oral bioavailability” (Bioorg Med Chem Lett, 2001)

How the values were obtained:
Homo sapiens [1] = species on record: Homo sapiens; assay: Percent inhibition of collagen stimulated platelet aggregation at a concentration of 10 uM; format: functional
[2] = Stimulation of soluble guanylate cyclase (sGC) using baculovirus expressed and partially purified bovine sGC at 1 uM concentration relative to benzydamine
[3] = Tmax at the dose of 2 mg/Kg administered perorally in rats; format: ADME, organism-based; settings: rat, in vivo, po
Homo sapiens [4] = species on record: Homo sapiens; assay: Concentration required to inhibit collagen induced platelet aggregation by 50%; format: functional, organism-based
Rattus norvegicus [5] = assay: Area under curve at the dose of 2 mg/Kg administered perorally in rats; format: ADME, organism-based; settings: in vivo, po
[6] = Bioavailability in rat (dose 2 mg/kg p.o.); format: ADME, organism-based; settings: in vivo, po
[7] = Cmax at the dose of 2 mg/Kg administered perorally in rats; format: ADME, organism-based; design: dose 2 mg/Kg, route oral; settings: rat, in vivo, po
Rattus norvegicus [8] = assay: Area under curve at the dose of 5 mg/Kg administered perorally in rats; format: ADME, organism-based; settings: in vivo, po
[9] = Cmax at the dose of 5 mg/Kg administered perorally in rats; format: ADME, organism-based; design: dose 5 mg/Kg, route oral; settings: rat, in vivo, po
[10] = Percent bioavailability at the dose of 5 mg/Kg administered perorally in rats; format: ADME, organism-based; settings: rat, in vivo, po
[11] = Tmax at the dose of 5 mg/Kg administered perorally in rats; format: ADME, organism-based; settings: rat, in vivo, po
[12] = target: Soluble guanylate cyclase (Homo sapiens, UniProt O75343+P33402+Q02108+Q02153); assay: The cGMP produced by compound was expressed as a ratio between the percentage of the DEA/NO response for the compound; format: protein-complex assay
Soluble guanylate cyclase, sequence (Q02153 whole entry): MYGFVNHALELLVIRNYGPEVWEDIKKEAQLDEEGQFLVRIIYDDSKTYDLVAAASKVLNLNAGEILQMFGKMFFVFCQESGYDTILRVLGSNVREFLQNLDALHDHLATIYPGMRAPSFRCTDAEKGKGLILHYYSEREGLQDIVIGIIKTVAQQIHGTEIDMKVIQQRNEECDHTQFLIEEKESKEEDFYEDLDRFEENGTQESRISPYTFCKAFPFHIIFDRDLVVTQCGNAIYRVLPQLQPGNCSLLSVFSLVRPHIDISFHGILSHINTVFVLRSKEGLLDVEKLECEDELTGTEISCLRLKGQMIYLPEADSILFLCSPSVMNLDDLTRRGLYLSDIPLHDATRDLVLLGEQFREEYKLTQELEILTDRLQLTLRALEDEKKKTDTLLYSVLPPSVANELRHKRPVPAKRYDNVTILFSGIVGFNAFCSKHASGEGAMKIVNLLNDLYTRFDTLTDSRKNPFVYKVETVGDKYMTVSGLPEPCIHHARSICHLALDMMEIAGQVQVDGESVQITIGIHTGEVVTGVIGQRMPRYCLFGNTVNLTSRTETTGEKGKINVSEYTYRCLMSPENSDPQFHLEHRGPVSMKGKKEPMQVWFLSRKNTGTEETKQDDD
Soluble guanylate cyclase, sequence (O75343 whole entry): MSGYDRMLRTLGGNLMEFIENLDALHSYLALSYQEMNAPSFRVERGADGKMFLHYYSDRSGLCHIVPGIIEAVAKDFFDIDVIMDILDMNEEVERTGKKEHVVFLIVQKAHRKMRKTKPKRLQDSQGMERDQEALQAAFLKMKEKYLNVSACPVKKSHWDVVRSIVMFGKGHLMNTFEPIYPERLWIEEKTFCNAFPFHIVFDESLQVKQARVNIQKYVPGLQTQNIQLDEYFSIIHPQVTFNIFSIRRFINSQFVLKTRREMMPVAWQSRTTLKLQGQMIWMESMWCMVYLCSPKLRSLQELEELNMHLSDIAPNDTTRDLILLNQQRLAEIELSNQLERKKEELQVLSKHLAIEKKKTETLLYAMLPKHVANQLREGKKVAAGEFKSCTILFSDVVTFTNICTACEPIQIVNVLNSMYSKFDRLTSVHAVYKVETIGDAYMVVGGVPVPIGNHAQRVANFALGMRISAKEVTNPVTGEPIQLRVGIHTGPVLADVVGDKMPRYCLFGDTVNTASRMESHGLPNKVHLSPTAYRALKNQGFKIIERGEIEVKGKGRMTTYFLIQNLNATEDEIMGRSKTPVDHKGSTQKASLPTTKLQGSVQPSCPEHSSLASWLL
Soluble guanylate cyclase, sequence (P33402 whole entry): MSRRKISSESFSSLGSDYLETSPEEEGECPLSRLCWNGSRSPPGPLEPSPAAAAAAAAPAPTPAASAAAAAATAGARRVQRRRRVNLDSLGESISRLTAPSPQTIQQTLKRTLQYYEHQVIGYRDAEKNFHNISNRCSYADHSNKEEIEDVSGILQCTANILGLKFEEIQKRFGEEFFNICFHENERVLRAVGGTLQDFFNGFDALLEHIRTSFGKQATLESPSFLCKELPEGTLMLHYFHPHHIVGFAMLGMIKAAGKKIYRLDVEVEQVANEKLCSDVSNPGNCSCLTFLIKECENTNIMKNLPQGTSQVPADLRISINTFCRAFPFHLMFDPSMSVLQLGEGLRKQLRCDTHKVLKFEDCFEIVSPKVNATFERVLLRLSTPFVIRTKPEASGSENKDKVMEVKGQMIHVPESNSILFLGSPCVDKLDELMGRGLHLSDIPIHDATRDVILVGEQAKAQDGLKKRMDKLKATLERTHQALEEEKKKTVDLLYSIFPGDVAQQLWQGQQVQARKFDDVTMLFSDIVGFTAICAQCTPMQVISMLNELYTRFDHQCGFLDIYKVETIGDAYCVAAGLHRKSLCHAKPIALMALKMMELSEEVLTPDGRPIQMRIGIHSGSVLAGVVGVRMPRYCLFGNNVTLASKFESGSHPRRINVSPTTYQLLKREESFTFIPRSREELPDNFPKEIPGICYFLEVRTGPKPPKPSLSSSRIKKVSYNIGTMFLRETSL
Soluble guanylate cyclase, sequence (Q02108 whole entry): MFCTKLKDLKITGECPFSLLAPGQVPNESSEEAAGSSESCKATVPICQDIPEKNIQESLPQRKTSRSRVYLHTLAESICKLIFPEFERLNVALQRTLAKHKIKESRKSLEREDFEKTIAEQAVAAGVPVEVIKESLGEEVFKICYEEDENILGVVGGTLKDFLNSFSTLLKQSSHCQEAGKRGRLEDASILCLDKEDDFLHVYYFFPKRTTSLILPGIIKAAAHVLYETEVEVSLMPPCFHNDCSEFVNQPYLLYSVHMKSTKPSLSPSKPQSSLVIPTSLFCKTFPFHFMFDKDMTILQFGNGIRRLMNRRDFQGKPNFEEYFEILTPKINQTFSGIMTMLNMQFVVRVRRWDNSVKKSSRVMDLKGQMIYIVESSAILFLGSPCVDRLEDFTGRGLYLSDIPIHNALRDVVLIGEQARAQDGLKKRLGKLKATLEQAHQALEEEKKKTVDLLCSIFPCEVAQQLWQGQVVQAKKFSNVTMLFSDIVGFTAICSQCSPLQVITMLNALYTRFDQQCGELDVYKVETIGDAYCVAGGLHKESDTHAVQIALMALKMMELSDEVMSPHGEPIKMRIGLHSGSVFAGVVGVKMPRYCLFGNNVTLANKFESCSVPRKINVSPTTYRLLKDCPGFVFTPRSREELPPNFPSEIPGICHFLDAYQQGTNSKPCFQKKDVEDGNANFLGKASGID

| SMILES | Relative enzyme activity [2] | inhibition at 10 µM (Homo sapiens [1]) | other results |
| --- | --- | --- | --- |
| CN(C)CCCOc1cc(C(=O)Nc2nccc3ccccc23)n(Cc2ccccc2)n1 | 1.31 | 80% | – |
| COc1cc(NC(=O)c2cc(OCCCN(C)C)nn2Cc2ccccc2)cc(OC)c1OC | 0.96 | 66% | – |
| CN(C)CCCOc1cc(C(=O)Nc2nc3ccccc3[nH]2)n(Cc2ccccc2)n1 | 0.74 | 13% | – |
| CN(C)CCCOc1nn(Cc2ccccc2)c2ccccc12 [BENZYDAMINE] | – | – | EC50 [12]: 1020 nM |
| CN(C)CCCOc1cc(C(=O)Nc2nccs2)n(Cc2ccccc2)n1 | 1.06 | 27% | – |
| CN(C)CCCOc1cc(C(=O)Nc2cccc(-c3cnco3)c2)n(Cc2ccccc2)n1 | 0.71 | 83% | – |
| CN(C)CCCOc1cc(C(=O)Nc2ccn(-c3ccccc3)n2)n(Cc2ccccc2)n1 | 0.71 | 75% | – |
| CN(C)CCCOc1cc(C(=O)Nc2ccc3c(c2)C(=O)N(C)C3=O)n(Cc2ccccc2)n1 | 0.81 | 64% | – |
| CN(C)CCCOc1cc(C(=O)Nc2ccc3ccccc3n2)n(Cc2ccccc2)n1 | 0.97 | 57% | – |
| CN(C)CCCOc1cc(C(=O)Nc2ccc(-c3csnn3)cc2)n(Cc2ccccc2)n1 | 0.81 | 96% | – |
| COc1ccc(-c2ccccc2)cc1NC(=O)c1cc(OCCCN(C)C)nn1Cc1ccccc1 | 0.86 | 95% | Tmax [3]: 7.3 h; IC50 (Homo sapiens [4]): 2760 nM; AUC (Rattus norvegicus [5]): 130 ng·h/mL; bioavailability [6]: 22%; Cmax [7]: 18 ng/mL |
| CN(C)CCCOc1cc(C(=O)Nc2nc3c(s2)CCCC3)n(Cc2ccccc2)n1 | 0.85 | 92% | – |

The next lines start with results.

| Relative enzyme activity [2] | SMILES | inhibition at 10 µM (Homo sapiens [1]) | other results |
| --- | --- | --- | --- |
| 0.91 | CN(C)CCCOc1cc(C(=O)Nc2cnc3ccccc3c2)n(Cc2ccccc2)n1 | 95% | Tmax [3]: 5 h; IC50 (Homo sapiens [4]): 3270 nM; AUC (Rattus norvegicus [5]): 95 ng·h/mL; bioavailability [6]: 19%; Cmax [7]: 14.3 ng/mL |
| 1.1 | COc1ccc(NC(=O)c2cc(OCCCN(C)C)nn2Cc2ccccc2)cc1 | 83% | IC50 (Homo sapiens [4]): 2840 nM; AUC (Rattus norvegicus [8]): 61.1 ng·h/mL; Cmax [9]: 6.4 ng/mL; bioavailability [10]: 12%; Tmax [11]: 2.7 h |
| 1.02 | CN(C)CCCOc1cc(C(=O)Nc2ccccc2F)n(Cc2ccccc2)n1 | 58% | – |
| 0.87 | CN(C)CCCOc1cc(C(=O)Nc2cccc(F)c2)n(Cc2ccccc2)n1 | 95% | – |
| 0.72 | COc1cc(NC(=O)c2cc(OCCCN(C)C)nn2Cc2ccccc2)cc(OC)c1 | 87% | – |
| 0.9 | CN(C)CCCOc1cc(C(=O)Nc2cc(F)cc(C(F)(F)F)c2)n(Cc2ccccc2)n1 | 43% | – |
| 0.76 | CN(C)CCCOc1cc(C(=O)Nc2cc(F)cc(F)c2)n(Cc2ccccc2)n1 | 44% | – |
| 0.91 | CN(C)CCCOc1cc(C(=O)Nc2ccc3[nH]ccc3c2)n(Cc2ccccc2)n1 | 66% | – |
| 0.93 | CN(C)CCCOc1cc(C(=O)Nc2cccc(Cl)c2)n(Cc2ccccc2)n1 | 95% | – |
| 0.74 | COc1cccc(NC(=O)c2cc(OCCCN(C)C)nn2Cc2ccccc2)c1 | 96% | – |
| 0.87 | CN(C)CCCOc1cc(C(=O)Nc2ccc(Br)cc2)n(Cc2ccccc2)n1 | 90% | Tmax [3]: 5 h; IC50 (Homo sapiens [4]): 3580 nM; AUC (Rattus norvegicus [5]): 76.9 ng·h/mL; bioavailability [6]: 17%; Cmax [7]: 12.1 ng/mL |
| 0.93 | CN(C)CCCOc1cc(C(=O)Nc2ccc(OC(F)(F)F)cc2)n(Cc2ccccc2)n1 | 85% | – |
| 0.88 | COc1ccc(NC(=O)c2cc(OCCCN(C)C)nn2Cc2ccccc2)cc1Cl | 93% | Tmax [3]: 4.5 h; IC50 (Homo sapiens [4]): 2630 nM; AUC (Rattus norvegicus [5]): 32.6 ng·h/mL; bioavailability [6]: 11%; Cmax [7]: 5.4 ng/mL |
| 0.91 | CN(C)CCCOc1cc(C(=O)Nc2ccc(Cl)cc2F)n(Cc2ccccc2)n1 | 96% | – |
